This is an account of results in paper PMC5854701 (Scientific Reports, 2018).

Assay in all cases: microbe, parasite or virus in culture
The subject of assay [1] is A/California/07/2009 (H1N1).
The test system of assay [2] is A/Denmark/524/2009 (H1N1).
For another assay, the system named is A/Texas/04/2009 (H1N1).
Assay [3] concerns A/Washington/29/2009 (H1N1).
Assay [4] relates to B/Wisconsin/1/2010 (Yamagata). Particulars: Influenza B virus.
The test system of assay [5] is B/Brisbane/60/2008 (Victoria). Particulars: Influenza B virus.
In assay [6] the test system is A/Switzerland/9715293/2013 (H3N2).
For assay [7], the system named is A/Denmark/528/2009 (H1N1).
Assay [8] deals with B/Memphis/20/1996 (Yamagata). Particulars: Influenza B virus.
For assay [9], the system named is B/Utah/09/2014 (Yamagata). To be noted: Influenza B virus.
Assay [10] deals with B/Phuket/3073/2013 (Yamagata). To be noted: Influenza B virus.

For orientation: EC50 means the concentration giving half of the maximal effect. Consider `C[C@@H](c1ccccc1)n1nnnc1[C@H](c1ccsc1)N1CCC(n2c(=O)[nH]c3ccccc32)CC1` [Compound 12a, 1‐{1‐[(S)‐{1‐[(1 S)‐1‐phenylethyl]‐1 H‐1,2,3,4‐tetrazol‐5‐yl}(thiophen‐3‐yl)methyl]piperidin‐4‐yl}‐2,3‐dihydro‐1 H‐1,3‐benzodiazol‐2‐one], for which the EC50 in assay [1] came out at 1300 ± 400 nM; in [2], 800 ± 200 nM; with A/Texas/04/2009 (H1N1), 1100 ± 400 nM; in [3], 900 ± 300 nM; in [4] it was 800 ± 300 nM; in assay [5], 600 ± 300 nM. Besides, the EC50 in [6] was 1400 ± 600 nM; in assay [7] it was 900 ± 300 nM; in assay [8], 2700 ± 200 nM; in assay [9] it was 1500 ± 300 nM; in assay [10], 1200 ± 200 nM.

As to `O=c1[nH]c2ccccc2n1C1CCN(C(CCc2ccccc2)c2nnnn2-c2ccc3c(c2)OCCO3)CC1` (centres unmarked) [Compound 5, 1‐(1‐{1‐[1‐(2,3‐dihydro‐1,4‐benzodioxin‐6‐yl)‐1,2,3,4‐tetrazol‐5‐yl]‐3‐phenylpropyl}piperidin‐4‐ yl)‐3 H‐1,3‐benzodiazol‐2‐one], the EC50 in [1] amounted to 4500 ± 700 nM; in assay [2] it was 1800 ± 400 nM; in the assay with A/Texas/04/2009 (H1N1), 3500 ± 1100 nM; in [3], 1600 ± 500 nM; in [4] it was 900 ± 200 nM; in assay [5], 1000 ± 300 nM.
